Assay results as given in patent publication US20230123334A1, “AMINO LIPID COMPOUND, PREPARATION METHOD THEREFOR, AND APPLICATION THEREOF” (SHENZHEN SHENXIN BIOTECHNOLOGY CO., LTD., priority 2020, published 2023).

Tested on: HEK293 cells
Assay: Preliminary screening as mRNA vectors, EGFP mRNA transfection of HEK293 cells
Assay type: cell-based
Settings: EGFP mRNA 50 ng per well, 96-well plates; percentage of GFP fluorescent cells relative to total number of cells (Hoechst)
Method in brief: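 HEK293 cells in DMEM plus 10% FBS transfected in 96-well format with 50 ng EGFP mRNA per well; Lipofectamine2000 served as positive control. Read-out is the percentage of GFP-fluorescent cells among total cells, counted by Hoechst nuclear stain.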

Structure (SMILES): CCCCCCCCCCCCCCCCSc1nc(NCCN2CCCC2)nc(N(CCCCCCCCCCCC)CCCCCCCCCCCC)n1 [D3S16^2N12]
- Absolute mRNA transfection efficiency in HEK293 cells: 0.2%

Structure (SMILES): CCCCCCCCCNc1nc(NCCN2CCCC2)nc(SCCCCCCCC)n1 [Compound D3S8N9]
- Absolute mRNA transfection efficiency in HEK293 cells: 3.2%

Structure (SMILES): CCCCCCCCCCCCSc1nc(NCCCCCCC)nc(NCCN2CCCCC2)n1 [Compound D4S12N7]
- Absolute mRNA transfection efficiency in HEK293 cells: 0.5%

Structure (SMILES): CCCCCCCCCCCCCCCNc1nc(NCCCN2CCOCC2)nc(SCCCCCC)n1 [Compound D8S6N15]
- Absolute mRNA transfection efficiency in HEK293 cells: 0.1%

Structure (SMILES): CCCCCCCCCCCCCCCCCCSc1nc(NCCCCCCCCCCCCC)nc(NCCN2CCCC2)n1 [Compound D3S18N13]
- Absolute mRNA transfection efficiency in HEK293 cells: 1.0%

Structure (SMILES): CCCCCCCCCCCCCCCCNc1nc(NCC2CCN(C)CC2)nc(SCCCCCCCCCC)n1 [Compound D10S10N16]
- Absolute mRNA transfection efficiency in HEK293 cells: 15.4%

Structure (SMILES): CCCCCCCCCCSc1nc(NCCCN2CCOCC2)nc(SCCCCCCC)n1 [Compound D8S7S10]
- Absolute mRNA transfection efficiency in HEK293 cells: 11.4%

Structure (SMILES): CCCCCCCCCCCCCCCCNc1nc(NCCN2CCCC2)nc(SCCCCCCCCCCCCCC)n1 [Compound D3S14N16]
- Absolute mRNA transfection efficiency in HEK293 cells: 1.2%

Structure (SMILES): CCCCCCCCCCCCCCCCSc1nc(NCCCCCCCCCCCCCCC)nc(NCCN2CCCC2)n1 [Compound D3S16N15]
- Absolute mRNA transfection efficiency in HEK293 cells: 0.0%

Structure (SMILES): CCCCCCCCCCCSc1nc(NCCCCCCC)nc(NCCCN2CCN(C)CC2)n1 [Compound D9S11N7]
- Absolute mRNA transfection efficiency in HEK293 cells: 10.5%

Structure (SMILES): CCCCCCCCCCCCN(CCCCCCCCCCCC)c1nc(NCCN2CCN(C)CC2)nc(SCCCCCC)n1 [D5S6^2N12]
- Absolute mRNA transfection efficiency in HEK293 cells: 0.3%

Structure (SMILES): CCCCCCCCCCSc1nc(NCCCCCC)nc(NCC2CCN(C)CC2)n1 [Compound D10S10N6]
- Absolute mRNA transfection efficiency in HEK293 cells: 0.5%

Structure (SMILES): CCCCCCCCCSc1nc(NCCCCCC)nc(NCCN2CCN(C)CC2)n1 [Compound D5S9N6]
- Absolute mRNA transfection efficiency in HEK293 cells: 2.9%

Structure (SMILES): CCCCCCCCCNc1nc(NCCN2CCOCC2)nc(SCCCCCCC)n1 [Compound D2S7N9]
- Absolute mRNA transfection efficiency in HEK293 cells: 8.7%

Structure (SMILES): CCCCCCCCCCCCCCCSc1nc(NCCCCCCCCCCC)nc(NCC2CCN(C)CC2)n1 [Compound D10S15N11]
- Absolute mRNA transfection efficiency in HEK293 cells: 2.7%

Structure (SMILES): CCCCCCCCCNc1nc(NCCN2CCCCC2)nc(SCCCCCCCC)n1 [Compound D4S8N9]
- Absolute mRNA transfection efficiency in HEK293 cells: 2.3%

Structure (SMILES): CCCCCCCCCCCCCCCCNc1nc(NCCN(C)C)nc(SCCCCCCCCCCCCCC)n1 [Compound D1S14N16]
- Absolute mRNA transfection efficiency in HEK293 cells: 1.8%

Structure (SMILES): CCCCCCCCCCCCCCCCCCNc1nc(NCCN(CC)CC)nc(SCCCCCCCCCC)n1 [Compound D7S10N18]
- Absolute mRNA transfection efficiency in HEK293 cells: 25.9%

Structure (SMILES): CCCCCCCCNc1nc(NCCN2CCCCC2)nc(SCCCCCCC)n1 [Compound D4S7N8]
- Absolute mRNA transfection efficiency in HEK293 cells: 0.5%

Structure (SMILES): CCCCCCCCCSc1nc(NCCCCCCCC)nc(NCCN(CC)CC)n1 [Compound D7S9N8]
- Absolute mRNA transfection efficiency in HEK293 cells: 11.1%

Structure (SMILES): CCCCCCCCNc1nc(NCC2CCN(C)CC2)nc(SCCCCCCC)n1 [Compound D10S7N8]
- Absolute mRNA transfection efficiency in HEK293 cells: 1.3%

Structure (SMILES): CCCCCCCCCCCCCNc1nc(NCCN2CCOCC2)nc(SCCCCCCCCCCC)n1 [Compound D2S11N13]
- Absolute mRNA transfection efficiency in HEK293 cells: 1.9%

Structure (SMILES): CCCCCCCCCCCCN(CCCCCCCCCCCC)c1nc(NCCN2CCN(C)CC2)nc(SCCCCCCCCCC)n1 [D5S10^2N12]
- Absolute mRNA transfection efficiency in HEK293 cells: 0.1%

Structure (SMILES): CCCCCCCCCCCCCCCCCCNc1nc(NCCCN2CCN(C)CC2)nc(SCCCCCCCCCCCCCCCC)n1 [Compound D9S16N18]
- Absolute mRNA transfection efficiency in HEK293 cells: 0.1%

Structure (SMILES): CCCCCCCCCCCCSc1nc(NCCCCCCCCCCC)nc(NCCCN2CCN(C)CC2)n1 [Compound D9S12N11]
- Absolute mRNA transfection efficiency in HEK293 cells: 3.3%

Structure (SMILES): CCCCCCCCNc1nc(NCCCN(C)C)nc(SCCCCCCCC)n1 [Compound D6S8N8]
- Absolute mRNA transfection efficiency in HEK293 cells: 3.5%

Structure (SMILES): CCCCCCCCCCCCCCCCNc1nc(NCCN(CC)CC)nc(SCCCCCCCCCCCC)n1 [Compound D7S12N16]
- Absolute mRNA transfection efficiency in HEK293 cells: 6.3%

Structure (SMILES): CCCCCCCCCCCCSc1nc(NCCCCCCCCCCC)nc(NCCN2CCN(C)CC2)n1 [Compound D5S12N11]
- Absolute mRNA transfection efficiency in HEK293 cells: 1.1%

Structure (SMILES): CCCCCCCCCCCCCCSc1nc(NCCCCCCCCCCCC)nc(NCCCN2CCOCC2)n1 [Compound D8S14N12]
- Absolute mRNA transfection efficiency in HEK293 cells: 1.3%

Structure (SMILES): CCCCCCCCCCCCSc1nc(NCCCCCC)nc(NCCN2CCCCC2)n1 [Compound D4S12N6]
- Absolute mRNA transfection efficiency in HEK293 cells: 0.9%

Structure (SMILES): CCCCCCCCCCCCSc1nc(NCCCCCCCCC)nc(NCCN2CCCCC2)n1 [Compound D4S12N9]
- Absolute mRNA transfection efficiency in HEK293 cells: 0.7%

Structure (SMILES): CCCCCCCCNc1nc(NCCN2CCN(C)CC2)nc(SCCCCCCC)n1 [Compound D5S7N8]
- Absolute mRNA transfection efficiency in HEK293 cells: 4.3%

Structure (SMILES): CCCCCCCCSc1nc(NCCCCCCC)nc(NCC2CCN(C)CC2)n1 [Compound D10S8N7]
- Absolute mRNA transfection efficiency in HEK293 cells: 0.3%

Structure (SMILES): CCCCCCCCCCSc1nc(NCCN(CC)CC)nc(SCCCCCC)n1 [Compound D7S6S10]
- Absolute mRNA transfection efficiency in HEK293 cells: 2.7%

Structure (SMILES): CCCCCCCCCCCCCCCSc1nc(NCC2CCN(C)CC2)nc(N(CCCCCCCCCCCC)CCCCCCCCCCCC)n1 [D10S15^2N12]
- Absolute mRNA transfection efficiency in HEK293 cells: 14.3%

Structure (SMILES): CCCCCCCCCCCCCCCCSc1nc(NCCCCCCCCC)nc(NCCCN2CCN(C)CC2)n1 [Compound D9S16N9]
- Absolute mRNA transfection efficiency in HEK293 cells: 54.4%

Structure (SMILES): CCCCCCCCCCCCCCCCCCNc1nc(NCCCN2CCOCC2)nc(SCCCCCC)n1 [Compound D8S6N18]
- Absolute mRNA transfection efficiency in HEK293 cells: 0.7%

Structure (SMILES): CCCCCCCCCCSc1nc(NCCCCCCCCC)nc(NCCN2CCCC2)n1 [Compound D3S10N9]
- Absolute mRNA transfection efficiency in HEK293 cells: 2.7%

Structure (SMILES): CCCCCCCCCCCNc1nc(NCCN(CC)CC)nc(SCCCCCCCC)n1 [Compound D7S8N11]
- Absolute mRNA transfection efficiency in HEK293 cells: 9.0%

Structure (SMILES): CCCCCCCCCCCCNc1nc(NCCN2CCN(C)CC2)nc(SCCCCCCCCC)n1 [Compound D5S9N12]
- Absolute mRNA transfection efficiency in HEK293 cells: 24.6%

Structure (SMILES): CCCCCCCCCCCCCCCCCCNc1nc(NCCN2CCCC2)nc(SCCCCCCC)n1 [Compound D3S7N18]
- Absolute mRNA transfection efficiency in HEK293 cells: 39.8%

Structure (SMILES): CCCCCCCCCCCCSc1nc(NCCN2CCN(C)CC2)nc(SCCCCCCC)n1 [Compound D5S7S12]
- Absolute mRNA transfection efficiency in HEK293 cells: 48.8%

Structure (SMILES): CCCCCCCCCCCCN(CCCCCCCCCCCC)c1nc(NCCN2CCCC2)nc(SCCCCCCCCCC)n1 [D3S10^2N12]
- Absolute mRNA transfection efficiency in HEK293 cells: 0.1%

Structure (SMILES): CCCCCCCCCCCCNc1nc(NCCN2CCCCC2)nc(SCCCCCCCCCCC)n1 [Compound D4S11N12]
- Absolute mRNA transfection efficiency in HEK293 cells: 8.9%

Structure (SMILES): CCCCCCCCCCCCCCCCSc1nc(NCCCCCCCCCCCC)nc(NCCN2CCCCC2)n1 [Compound D4S16N12]
- Absolute mRNA transfection efficiency in HEK293 cells: 0.1%

Structure (SMILES): CCCCCCCCCCCCCCCNc1nc(NCCN2CCCC2)nc(SCCCCCCCCCCC)n1 [Compound D3S11N15]
- Absolute mRNA transfection efficiency in HEK293 cells: 31.3%

Structure (SMILES): CCCCCCCCCCCCCCCCSc1nc(NCCCCCCCCCCCCCCC)nc(NCCN2CCOCC2)n1 [Compound D2S16N15]
- Absolute mRNA transfection efficiency in HEK293 cells: 0.2%

Structure (SMILES): CCCCCCCCCCCCCCCSc1nc(NCCCN2CCN(C)CC2)nc(SCCCCCC)n1 [Compound D9S6S15]
- Absolute mRNA transfection efficiency in HEK293 cells: 6.5%

Structure (SMILES): CCCCCCCCCCCNc1nc(NCCN(C)C)nc(SCCCCCC)n1 [Compound D1S6N11]
- Absolute mRNA transfection efficiency in HEK293 cells: 1.0%
